Laboratory results from patent US4245050A, “Process for the preparation of choline oxidase by fermentation” (Kyowa Hakko Kogyo Co., Ltd., priority 1976, dated 1981).
Structures can show the parent of a compound that is named as a salt. Where two headings read alike, the source gives them in different places. Each block holds one molecule with its values, some of them ahead of it.

What was measured:
[1] = tested on: choline oxidase derived from B. album KY 4319
Experimental: An approximately 4 ml-reactor for measurement of oxygen absorption is kept at 37° C. and an oxygen electrode is inserted therein. Choline oxidase is dissolved in 0.05 mol/L Tris buffer having a pH of 8.0 to make up a concentration of 0.8 U/ml. […] The concentration of oxygen dissolved in the solution is recorded continuously by recorder while stirring the solution. Decrease in oxygen concentration for 5 minutes after the start of the reaction is calculated.
The same procedure as above is repeated except that sodium azide is not added (control).

[2] = tested on: choline oxidase derived from C. murisepticum KY 3505; experiment: Substrate specificity of choline oxidase; assay type: biochemical, Corynebacterium murisepticum; details: enzyme 0.4 U/ml; activity on choline chloride defined as 100
Experimental: (§1) The activity of choline oxidase in the experimental examples and the following examples is determined by oxidizing choline with choline oxidase to produce hydrogen peroxide, decomposing hydrogen peroxide with peroxidase in the presence of phenol and 4-aminoantipyrine to produce the pigment, and measuring the absorbancy of the pigment solution as described below.
(§2) Choline oxidase is dissolved in 0.05 mol/L Tris buffer having a pH of 8.0 to make up a specific concentration (1.5 and 0.4 U/ml respectively in case of choline oxidase derived from KY 4319 and KY 3505 strains). The solutions are then subjected to the same determination of choline oxidase as described above except that the various substances other than choline chloride shown in Table 3 are used as a substrate. The relative activities on the various substrates are calculated by defining the activity on choline chloride as 100.

[3] = tested on: choline oxidase derived from Brevibacterium album KY 4319; details: for hydrogen peroxide produced from 1 mol of substrate (concluded stoichiometry): conclusion from Table 4; for Amount of hydrogen peroxide [B']: 37° C., 20 minutes, pH 8.0
Experimental: (§3) In the following Experiment (1) and (2), choline oxidase, derived from Brevibacterium album KY 4319 is used.
In this experiment, 0.05 mol/L Tris buffer (pH 8.0) containing 0.001 mol/L of 4-aminoantripyrine, 0.001 mol/L of phenol and 50 mg/L of peroxidase is used as a color-forming liquid. […] The absorbancy of the reaction mixture is measured at 500 nm. The amount of hydrogen peroxide produced is calculated based on the measured value. The ratio of the amount of the hydrogen peroxide produced (μmol) to the amount of the charged substrate (μmol) is shown in Table 4.

[4] = tested on: choline oxidase derived from B. album KY 4319; experiment: Substrate specificity of choline oxidase; assay type: biochemical, Brevibacterium album; details: enzyme 1.5 U/ml; activity on choline chloride defined as 100
Experimental: as §1, §2

[5] = tested on: choline oxidase derived from Brevibacterium album KY 4319; details: for oxygen consumed per 1 mol of substrate (concluded stoichiometry): conclusion from Table 3; for Amount of O2 uptake [B]: 37° C., pH 8.0
Experimental: as §3
Then, 0.5 ml of 0.05 mol/L Tris buffer (pH 8.0) containing 1.5 U/ml of choline oxidase is put in the side arm, and reaction is carried out at 37° C. During the reaction, the amount of oxygen uptake (volume) is measured at regular intervals of time. The reaction is completed in 30-40 minutes.

[6] = tested on: Brevibacterium album KY 4319
Experimental: A 0.05 mol/L Tris buffer solution (pH 8.0) containing 0.01 mol/L of 4-aminoantipyrine, 0.01 mol/L of phenol and 5000 U/L of peroxidase is prepared and used as color-forming liquid. […] Reaction is carried out at 37° C. for 20 minutes and then the absorbancy of the solution is measured at 500 nm. The amount of the reacted choline chloride is calculated based on the measured value. The enzyme activity is expressed by "U" which is defined as the amount of enzyme which will decompose 1 μmole of choline in 1 minute under the above-described conditions.

[7] = tested on: Corynebacterium murisepticum KY 3505
Experimental: as §1
In this experimental example, Brevibacterium album KY 4319 and Corynebacterium murisepticum KY 3505 are used. 10 ml portions of a nutrient medium having the following composition are poured into 70 ml-test tubes and sterilized at 120° C. for 15 minutes.
One loopful of the above strains are separately inoculated into the medium in the test tubes, and culturing is carried out with shaking at 30° C. for […].
After the completion of culturing, each of the culture liquors is subjected to centrifugation. The resultant microbial cells are suspended in 10 ml of 0.05 mol/L Tris buffer having a pH of 8.0 and disrupted by ultrasonic generator. The resultant mixture is subjected to centrifugation and choline oxidase activity of the supernatant is measured.

[8] = choline chloride 0.5 g/dl (36 mmol/L) in medium
[9] = choline chloride 1.0 g/dl (72 mmol/L) in medium
[10] = choline chloride 5.0 g/dl (360 mmol/L) in medium
[11] = choline chloride 10.0 g/dl (720 mmol/L) in medium

Structure (SMILES): [N-]=[N+]=[N-] [sodium azide]
Inhibitor [1]: Inhibitor
enzyme activity inhibited, compared with the control ([1]; 1.7×10^-3 mol/L sodium azide, 37° C., pH 8.0, 5 minutes): 44.4%

Structure (SMILES): C[N+](C)(C)CCO.[Cl-] [choline chloride]
Substrate specificity (relative activity %) [2]: 100%
hydrogen peroxide produced from 1 mol of substrate (concluded stoichiometry) [3]: 2 mol
[B']/[A'] (hydrogen peroxide produced / charged substrate) ([3]; substrate 0.045 μmol): 1.80
Amount of hydrogen peroxide [B'] ([3]; substrate 0.045 μmol): 0.081 µmol
[B']/[A'] (hydrogen peroxide produced / charged substrate) ([3]; substrate 0.090 μmol): 1.67
Amount of hydrogen peroxide [B'] ([3]; substrate 0.090 μmol): 0.150 µmol
[B']/[A'] (hydrogen peroxide produced / charged substrate) ([3]; substrate 0.180 μmol): 1.72
Amount of hydrogen peroxide [B'] ([3]; substrate 0.180 μmol): 0.310 µmol
amount of hydrogen peroxide produced from 1 mol of substrate ([3]; summary of Table 4): 1.67 to 1.80 mol
Substrate specificity (relative activity %) [4]: 100%
oxygen consumed per 1 mol of substrate (concluded stoichiometry) [5]: 2 mol
[B]/[A] (O2 uptake / charged substrate) ([5]; substrate 1.25 μmol): 1.87
Amount of O2 uptake [B] ([5]; substrate 1.25 μmol): 2.34 µmol
[B]/[A] (O2 uptake / charged substrate) ([5]; substrate 2.50 μmol): 1.89
Amount of O2 uptake [B] ([5]; substrate 2.50 μmol): 4.72 µmol
[B]/[A] (O2 uptake / charged substrate) ([5]; substrate 5.00 μmol): 1.91
Amount of O2 uptake [B] ([5]; substrate 5.00 μmol): 9.56 µmol
amount of oxygen consumed by 1 mol of substrate ([5]; summary of Table 3): 1.87 to 1.91 mol
Activity of choline oxidase ([6]; choline chloride 0.1 g/dl (7.2 mmol/L) in medium, 30° C. culture, supernatant of disrupted cells): 13.0 U/dl
Activity of choline oxidase [6, 8]: 35.4 U/dl
Activity of choline oxidase [6, 9]: 32.7 U/dl
Activity of choline oxidase [6, 10]: 23.4 U/dl
Activity of choline oxidase [6, 11]: 15.1 U/dl
Activity of choline oxidase ([7]; choline chloride 0.1 g/dl (7.2 mmol/L) in medium): 6.4 U/dl
Activity of choline oxidase [7, 8]: 9.3 U/dl
Activity of choline oxidase [7, 9]: 17.1 U/dl
Activity of choline oxidase ([7]; choline chloride 2.0 g/dl (144 mmol/L) in medium): 17.5 U/dl
Activity of choline oxidase [7, 10]: 12.8 U/dl
Activity of choline oxidase [7, 11]: 6.7 U/dl

Structure (SMILES): NCCO [ethanolamine hydrochloride]
Substrate specificity (relative activity %) [2]: 0%
Substrate specificity (relative activity %) [4]: 0%

Structure (SMILES): CN(C)CCO [2-dimethylaminoethanol, 2-dimethyl-aminoethanol]
Substrate specificity (relative activity %) [2]: 8.5%
Substrate specificity (relative activity %) [4]: 7.3%

Substrate specificity (relative activity %) [2]: 0%
Substrate specificity (relative activity %) [4]: 0%
Structure (SMILES): CNCC(=O)O [sarcosine]

Structure (SMILES): CC(=O)OCC[N+](C)(C)C.[Cl-] [acetylcholine chloride]
Substrate specificity (relative activity %) [2]: 0%
Substrate specificity (relative activity %) [4]: 0%

Structure (SMILES): C[N+](C)(C)CC(=O)O [betaine]
Substrate specificity (relative activity %) [2]: 0%
Substrate specificity (relative activity %) [4]: 0%

Structure (SMILES): NCC(=O)O [glycine]
Substrate specificity (relative activity %) [2]: 0%
Substrate specificity (relative activity %) [4]: 0%

Substrate specificity (relative activity %) [2]: 0%
Substrate specificity (relative activity %) [4]: 1.0%
Structure (SMILES): CNCCO [2-methylaminoethanol, 2-methyl-aminoethanol]

Structure (SMILES): C[N+](C)(C)CC=O [betaine aldehyde]
hydrogen peroxide produced from 1 mol of substrate (concluded stoichiometry) [3]: 1 mol
[B']/[A'] (hydrogen peroxide produced / charged substrate) ([3]; substrate 0.045 μmol): 0.78
Amount of hydrogen peroxide [B'] ([3]; substrate 0.045 μmol): 0.035 µmol
[B']/[A'] (hydrogen peroxide produced / charged substrate) ([3]; substrate 0.090 μmol): 0.93
Amount of hydrogen peroxide [B'] ([3]; substrate 0.090 μmol): 0.084 µmol
[B']/[A'] (hydrogen peroxide produced / charged substrate) ([3]; substrate 0.180 μmol): 0.93
Amount of hydrogen peroxide [B'] ([3]; substrate 0.180 μmol): 0.168 µmol
oxygen consumed per 1 mol of substrate (concluded stoichiometry) [5]: 1 mol
[B]/[A] (O2 uptake / charged substrate) ([5]; substrate 1.25 μmol): 0.88
Amount of O2 uptake [B] ([5]; substrate 1.25 μmol): 1.10 µmol
[B]/[A] (O2 uptake / charged substrate) ([5]; substrate 2.50 μmol): 0.92
Amount of O2 uptake [B] ([5]; substrate 2.50 μmol): 2.31 µmol
[B]/[A] (O2 uptake / charged substrate) ([5]; substrate 5.00 μmol): 0.93
Amount of O2 uptake [B] ([5]; substrate 5.00 μmol): 4.67 µmol
